Structures can show the parent of a compound that is named as a salt.
How the values were obtained:
[1] = target: Sigma-1 receptor (Cavia porcellus); assay: Binding affinity for sigma receptor in guinea pig brain membrane using radiolabeled ligand [3H]-(+)-SKF- 10,047 was determined
[2] = Binding affinity for dopamine receptor D2 in guinea pig striatal membrane using radiolabeled ligand [3H]spiperone

SMILES | Ki [1] | Ki [2]
CN1CCC2(CC1)OC(C)(c1ccccc1)CC2=O (configuration not stated) [2,8-Dimethyl-2-phenyl-1-oxa-8-aza-spiro[4.5]decan-4-one; compound with (E)-but-2-enedioic acid] | 214 nM | 10000 nM
CCN(CC)CCC1(C)OC=C(c2ccccc2)C1=O (configuration not stated) [2-(2-Diethylamino-ethyl)-2-methyl-4-phenyl-furan-3-one; hydrochloride] | 9 nM | 10000 nM
CCN(CC)CCC1(C)OC(c2ccccc2)=CC1=O (configuration not stated) [2-(2-Diethylamino-ethyl)-2-methyl-5-phenyl-furan-3-one; hydrochloride] | 44 nM | > 10000 nM
CN(C)CCC1(c2ccccc2)OC=C(c2ccccc2)C1=O (configuration not stated) [2-(2-Dimethylamino-ethyl)-2,4-diphenyl-furan-3-one; hydrochloride] | 223 nM | 2690 nM
CCN(CC)CCCC1(C)OC=C(c2ccccc2)C1=O (configuration not stated) [2-(3-Diethylamino-propyl)-2-methyl-4-phenyl-furan-3-one; hydrochloride] | 16 nM | > 10000 nM
O=C1C=C(c2ccc(F)cc2)OC12CCN(CCc1ccccc1)CC2 [2-(4-Fluoro-phenyl)-8-phenethyl-1-oxa-8-aza-spiro[4.5]dec-2-en-4-one; hydrochloride] | 6 nM | 5320 nM
O=C1C=C(c2ccccc2)OC12CCNCC2 [2-Phenyl-1-oxa-8-aza-spiro[4.5]dec-2-en-4-one; hydrochloride] | 462 nM | > 10000 nM
CN1CCC2(CC1)OC=C(c1ccc(F)cc1)C2=O [3-(4-Fluoro-phenyl)-8-methyl-1-oxa-8-aza-spiro[4.5]dec-2-en-4-one; hydrochloride] | 4000 nM | 2600 nM
O=C1C(c2ccc(F)cc2)=COC12CCN(CCc1ccccc1)CC2 [3-(4-Fluoro-phenyl)-8-phenethyl-1-oxa-8-aza-spiro[4.5]dec-2-en-4-one; hydrochloride] | 24 nM | 217 nM
COc1ccc(C2=COC3(CCN(CCc4ccccc4)CC3)C2=O)cc1 [3-(4-Methoxy-phenyl)-8-phenethyl-1-oxa-8-aza-spiro[4.5]dec-2-en-4-one; hydrochloride] | 30 nM | 2070 nM
O=C1C(c2ccc3ccccc3c2)=COC12CCN(CCc1ccccc1)CC2 [3-Naphthalen-2-yl-8-phenethyl-1-oxa-8-aza-spiro[4.5]dec-2-en-4-one; hydrochloride] | 35 nM | 3130 nM
O=C1C(c2ccccc2)=COC12CCNCC2 [3-Phenyl-1-oxa-8-aza-spiro[4.5]dec-2-en-4-one; hydrochloride] | 6220 nM | 10000 nM
O=C1C=C(c2ccccc2)OC12CCCN(Cc1ccccc1)C2 (configuration not stated) [7-Benzyl-2-phenyl-1-oxa-7-aza-spiro[4.5]dec-2-en-4-one; hydrochloride] | 4520 nM | > 10000 nM
O=C1C(c2ccccc2)=COC12CCN(Cc1ccccc1)C2 (configuration not stated) [7-Benzyl-3-phenyl-1-oxa-7-aza-spiro[4.4]non-2-en-4-one; hydrochloride] | 32 nM | 20000 nM
O=C1C(c2ccccc2)=COC12CCCN(Cc1ccccc1)C2 (configuration not stated) [7-Benzyl-3-phenyl-1-oxa-7-aza-spiro[4.5]dec-2-en-4-one; hydrochloride] | 695 nM | > 10000 nM
O=C(CCCN1CCCC2(C1)OC(c1ccccc1)=CC2=O)c1ccc(F)cc1 (configuration not stated) [7-[4-(4-Fluoro-phenyl)-4-oxo-butyl]-2-phenyl-1-oxa-7-aza-spiro[4.5]dec-2-en-4-one; hydrochloride] | 384 nM | 152 nM
O=C1C(c2ccccc2)=COC12CCN(Cc1cccc(Cl)c1)CC2 [8-(3-Chloro-benzyl)-3-phenyl-1-oxa-8-aza-spiro[4.5]dec-2-en-4-one; hydrochloride] | 232 nM | 2110 nM
Cc1cc(CN2CCC3(CC2)OC=C(c2ccccc2)C3=O)on1 [8-(3-Methyl-isoxazol-5-ylmethyl)-3-phenyl-1-oxa-8-aza-spiro[4.5]dec-2-en-4-one; hydrochloride] | 7500 nM | 32000 nM
O=C1C(c2ccccc2)=COC12CCN(Cc1ccc(F)cc1)CC2 [8-(4-Fluoro-benzyl)-3-phenyl-1-oxa-8-aza-spiro[4.5]dec-2-en-4-one; hydrochloride] | 3 nM | 2420 nM
C=CCN1CCC2(CC1)OC=C(c1ccccc1)C2=O [8-Allyl-3-phenyl-1-oxa-8-aza-spiro[4.5]dec-2-en-4-one; hydrochloride] | 163 nM | 4870 nM
O=C1C=C(c2ccccc2)OC12CCN(Cc1ccccc1)CC2 [8-Benzyl-2-phenyl-1-oxa-8-aza-spiro[4.5]dec-2-en-4-one; hydrochloride] | 1 nM | > 10000 nM
O=C1C(c2ccc(F)cc2)=COC12CCN(Cc1ccccc1)CC2 [8-Benzyl-3-(4-fluoro-phenyl)-1-oxa-8-aza-spiro[4.5]dec-2-en-4-one; hydrochloride] | – | 1420 nM
O=C1C(c2ccccc2)=COC12CCN(Cc1ccccc1)CC2 [8-Benzyl-3-phenyl-1-oxa-8-aza-spiro[4.5]dec-2-en-4-one; hydrochloride] | 4 nM | 2370 nM
O=C1C(c2ccc(F)cc2)=COC12CCN(CC1CCCCC1)CC2 [8-Cyclohexylmethyl-3-(4-fluoro-phenyl)-1-oxa-8-aza-spiro[4.5]dec-2-en-4-one; hydrochloride] | 2 nM | 962 nM
O=C1C(c2ccccc2)=COC12CCN(CC1CCCCC1)CC2 [8-Cyclohexylmethyl-3-phenyl-1-oxa-8-aza-spiro[4.5]dec-2-en-4-one; hydrochloride] | 1 nM | 642 nM
CN1CCC2(CC1)OC(c1ccccc1)=CC2=O [8-Methyl-2-phenyl-1-oxa-8-aza-spiro[4.5]dec-2-en-4-one; hydrochloride] | 298 nM | 2900 nM
CN1CCC2(CC1)OC=C(c1ccccc1)C2=O [8-Methyl-3-phenyl-1-oxa-8-aza-spiro[4.5]dec-2-en-4-one; hydrochloride] | 580 nM | > 10000 nM
O=C1C=C(c2ccccc2)OC12CCN(CCc1ccccc1)CC2 [8-Phenethyl-2-phenyl-1-oxa-8-aza-spiro[4.5]dec-2-en-4-one; hydrochloride] | 1 nM | 7180 nM
O=C(CCCN1CCC2(CC1)OC=C(c1ccccc1)C2=O)c1ccc(F)cc1 [8-[4-(4-Fluoro-phenyl)-4-oxo-butyl]-3-phenyl-1-oxa-8-aza-spiro[4.5]dec-2-en-4-one; hydrochloride] | 17 nM | 70 nM

From BindingDB's records for doi:10.1016/S0960-894X(01)80879-9 (1993)
